ChEMBL document CHEMBL3885861, “Open TG-GATES”

Species: Rattus norvegicus
Assay: Open TG-GATES - Regimen: Single
Format: toxicity, organism-based, Sprague-Dawley
Set-up: regimen Single, gender Male, age 6 weeks
Details: in vivo, iv, 0 mg/kg, route intravenous injection, dose level Control; for Bas / Eos / Fbg / Ht / Lym / MCH / MCHC / MCV / Mono / PT / Plat / RBC / Ret / Neu: tissue Blood; for KIDNEY_L / KIDNEY_R / KIDNEY_TOTAL: tissue Kidney; for LIVER: tissue Liver

In the case of `COc1cccc2c1C(=O)c1c(O)c3c(c(O)c1C2=O)C[C@@](O)(C(=O)CO)C[C@@H]3O[C@H]1C[C@H](N)[C@H](O)[C@H](C)O1` [DOXORUBICIN], the TERMINAL_BW (3 h) is reported as 210.4 g, the Bas (3 h) is reported as 0% and the Eos (3 h) is reported as 0.8%. The Fbg (3 h) was 277.8 mg/dL, the Ht (3 h) was 39.4% and the Lym (3 h) was 84.4%. It also gave an MCH (3 h) of 22 pg, an MCHC (3 h) of 34.9% and an MCV (3 h) of 63.1 fL. It also gave a Mono (3 h) of 2.6%, a PT (3 h) of 16.3 s and a Plat (3 h) of 122.6 x10_4/uL. The RBC (3 h) was 625 x10_4/ul, the Ret (3 h) was 6.3% and the KIDNEY_L (3 h) was 0.9 g. The KIDNEY_R (3 h) was 0.9 g, the KIDNEY_TOTAL (3 h) was 1.8 g and the LIVER (3 h) was 9.4 g. For the same compound, the ALP (3 h, tissue Plasma) was 1425.2 IU/L, the ALT (3 h, tissue Plasma) was 43.6 IU/L and the AST (3 h, tissue Plasma) was 77 IU/L. The CRE (3 h, tissue Plasma) was 0.2 mg/dL, the DBIL (3 h, tissue Plasma) was 0 mg/dL and the GLC (3 h, tissue Plasma) was 181.8 mg/dL. It also gave a K (3 h, tissue Plasma) of 4.5 meq/L, an LDH (3 h, tissue Plasma) of 185.6 IU/L and a Na (3 h, tissue Plasma) of 142.2 meq/L. For the same compound, the RALB (3 h, tissue Plasma) was 3 g/dL, the TBIL (3 h, tissue Plasma) was 0.008 mg/dL and the TC (3 h, tissue Plasma) was 77.6 mg/dL. The TG (3 h, tissue Plasma) was 87.2 mg/dL, the TP (3 h, tissue Plasma) was 5.2 g/dL and the gamma-GTP (3 h, tissue Plasma) was 1.2 IU/L. It also gave a TERMINAL_BW (6 h) of 211.5 g, a Bas (6 h) of 0% and an Eos (6 h) of 0.8%. The Fbg (6 h) was 292.4 mg/dL, the Ht (6 h) was 38.3% and the Lym (6 h) was 76%. The MCH (6 h) was 21.5 pg, the MCHC (6 h) was 34.4% and the MCV (6 h) was 62.4 fL. The Mono (6 h) was 2.8%, the Neu (6 h) was 19.2% and the PT (6 h) was 16.3 s. For the same compound, the Plat (6 h) was 127.3 x10_4/uL, the RBC (6 h) was 614.6 x10_4/ul and the Ret (6 h) was 6.9%. It also gave a KIDNEY_L (6 h) of 0.9 g, a KIDNEY_R (6 h) of 0.9 g and a KIDNEY_TOTAL (6 h) of 1.8 g. For the same compound, the LIVER (6 h) was 8.9 g, the ALP (6 h, tissue Plasma) was 1252 IU/L and the ALT (6 h, tissue Plasma) was 46.6 IU/L. The AST (6 h, tissue Plasma) was 90.2 IU/L, the CRE (6 h, tissue Plasma) was 0.2 mg/dL and the DBIL (6 h, tissue Plasma) was 0.004 mg/dL. The GLC (6 h, tissue Plasma) was 172.2 mg/dL, the K (6 h, tissue Plasma) was 4.3 meq/L and the Na (6 h, tissue Plasma) was 140.6 meq/L. It also gave an RALB (6 h, tissue Plasma) of 2.9 g/dL, a TBIL (6 h, tissue Plasma) of 0.026 mg/dL and a TC (6 h, tissue Plasma) of 71.8 mg/dL. The TG (6 h, tissue Plasma) was 63 mg/dL, the TP (6 h, tissue Plasma) was 5.1 g/dL and the gamma-GTP (6 h, tissue Plasma) was 1.6 IU/L. The TERMINAL_BW (9 h) was 208 g, the Bas (9 h) was 0% and the Eos (9 h) was 0.6%. It also gave a Fbg (9 h) of 298.2 mg/dL, a Ht (9 h) of 38.9% and a Lym (9 h) of 77.8%. The MCH (9 h) was 21.6 pg, the MCHC (9 h) was 34.2% and the MCV (9 h) was 63.2 fL. It also gave a Mono (9 h) of 2.8%, a PT (9 h) of 16.4 s and a Plat (9 h) of 116.3 x10_4/uL. It also gave an RBC (9 h) of 615.4 x10_4/ul, a Ret (9 h) of 6.5% and a KIDNEY_L (9 h) of 0.9 g. The KIDNEY_R (9 h) was 1 g, the KIDNEY_TOTAL (9 h) was 1.9 g and the LIVER (9 h) was 8.6 g. It also gave an ALP (9 h, tissue Plasma) of 1422.6 IU/L, an ALT (9 h, tissue Plasma) of 39.8 IU/L and an AST (9 h, tissue Plasma) of 77.6 IU/L. The CRE (9 h, tissue Plasma) was 0.2 mg/dL, the DBIL (9 h, tissue Plasma) was 0 mg/dL and the GLC (9 h, tissue Plasma) was 201.8 mg/dL. The K (9 h, tissue Plasma) was 4.3 meq/L, the Na (9 h, tissue Plasma) was 140.2 meq/L and the RALB (9 h, tissue Plasma) was 2.9 g/dL. The TBIL (9 h, tissue Plasma) was 0.01 mg/dL, the TC (9 h, tissue Plasma) was 63 mg/dL and the TG (9 h, tissue Plasma) was 65.6 mg/dL. It also gave a TP (9 h, tissue Plasma) of 5.3 g/dL, a gamma-GTP (9 h, tissue Plasma) of 1.4 IU/L and a TERMINAL_BW (24 h) of 223.8 g. It also gave a Bas (24 h) of 0%, an Eos (24 h) of 1% and a Fbg (24 h) of 298 mg/dL. For the same compound, the Ht (24 h) was 37.5%, the Lym (24 h) was 77.6% and the MCH (24 h) was 22.4 pg. The MCHC (24 h) was 36%, the MCV (24 h) was 62.2 fL and the Mono (24 h) was 4%. For the same compound, the Neu (24 h) was 16.4%, the PT (24 h) was 16.4 s and the Plat (24 h) was 117.3 x10_4/uL. It also gave an RBC (24 h) of 602.6 x10_4/ul, a Ret (24 h) of 7% and a KIDNEY_L (24 h) of 0.9 g. It also gave a KIDNEY_R (24 h) of 1 g, a KIDNEY_TOTAL (24 h) of 1.9 g and an ALP (24 h, tissue Plasma) of 1402 IU/L. It also gave an ALT (24 h, tissue Plasma) of 41 IU/L, an AST (24 h, tissue Plasma) of 68 IU/L and a CRE (24 h, tissue Plasma) of 0.2 mg/dL. The DBIL (24 h, tissue Plasma) was 0.002 mg/dL, the GLC (24 h, tissue Plasma) was 191.2 mg/dL and the K (24 h, tissue Plasma) was 4.5 meq/L. The Na (24 h, tissue Plasma) was 141.6 meq/L, the RALB (24 h, tissue Plasma) was 3.1 g/dL and the TBIL (24 h, tissue Plasma) was 0.014 mg/dL. It also gave a TC (24 h, tissue Plasma) of 77.6 mg/dL, a TG (24 h, tissue Plasma) of 113 mg/dL and a TP (24 h, tissue Plasma) of 5.5 g/dL. The gamma-GTP (24 h, tissue Plasma) was 1.4 IU/L.
